Assay results: patent US10023570B2 (Array BioPharma, Inc., priority 2015, dated 2018)
Where a name gives a salt, the structure may show the parent alone.

Target: human KDR protein in HEK-293 cells (Homo sapiens (Human), UniProt P35968)
Assay: KDR Cell Assay (phospho-KDR in HEK-293 cells expressing inducible KDR)
Format: cell-based
Conditions: pKDR Cell HEK 10% FBS IC50, HEK-293 cells expressing inducible KDR, VEGF stimulated
Description: The cellular potency of a compound inhibiting KDR kinase was determined in HEK-293 cells expressing an inducible human KDR protein. […] The cells were incubated for 1 hour with test compound in DMEM at a final DMSO concentration of 0.25%. […] The media was aspirated and 35 μL of a 1× lysis buffer was added. […] The lysate was stored at −80° C. until ready for assay. Phospho-KDR was measured using a phospho-KDR kit (Catalog #K151BOC) purchased from Meso Scale Diagnostics (Rockville, Md.) according to the manufacturer's instructions. All values are expressed as percent of percent of control (POC). The POC values were fitted to a 4 parameter logistic curve fit and the IC50 value is point where the curve crosses 50 POC.

Chain of human KDR protein in HEK-293 cells (P35968 20-1356): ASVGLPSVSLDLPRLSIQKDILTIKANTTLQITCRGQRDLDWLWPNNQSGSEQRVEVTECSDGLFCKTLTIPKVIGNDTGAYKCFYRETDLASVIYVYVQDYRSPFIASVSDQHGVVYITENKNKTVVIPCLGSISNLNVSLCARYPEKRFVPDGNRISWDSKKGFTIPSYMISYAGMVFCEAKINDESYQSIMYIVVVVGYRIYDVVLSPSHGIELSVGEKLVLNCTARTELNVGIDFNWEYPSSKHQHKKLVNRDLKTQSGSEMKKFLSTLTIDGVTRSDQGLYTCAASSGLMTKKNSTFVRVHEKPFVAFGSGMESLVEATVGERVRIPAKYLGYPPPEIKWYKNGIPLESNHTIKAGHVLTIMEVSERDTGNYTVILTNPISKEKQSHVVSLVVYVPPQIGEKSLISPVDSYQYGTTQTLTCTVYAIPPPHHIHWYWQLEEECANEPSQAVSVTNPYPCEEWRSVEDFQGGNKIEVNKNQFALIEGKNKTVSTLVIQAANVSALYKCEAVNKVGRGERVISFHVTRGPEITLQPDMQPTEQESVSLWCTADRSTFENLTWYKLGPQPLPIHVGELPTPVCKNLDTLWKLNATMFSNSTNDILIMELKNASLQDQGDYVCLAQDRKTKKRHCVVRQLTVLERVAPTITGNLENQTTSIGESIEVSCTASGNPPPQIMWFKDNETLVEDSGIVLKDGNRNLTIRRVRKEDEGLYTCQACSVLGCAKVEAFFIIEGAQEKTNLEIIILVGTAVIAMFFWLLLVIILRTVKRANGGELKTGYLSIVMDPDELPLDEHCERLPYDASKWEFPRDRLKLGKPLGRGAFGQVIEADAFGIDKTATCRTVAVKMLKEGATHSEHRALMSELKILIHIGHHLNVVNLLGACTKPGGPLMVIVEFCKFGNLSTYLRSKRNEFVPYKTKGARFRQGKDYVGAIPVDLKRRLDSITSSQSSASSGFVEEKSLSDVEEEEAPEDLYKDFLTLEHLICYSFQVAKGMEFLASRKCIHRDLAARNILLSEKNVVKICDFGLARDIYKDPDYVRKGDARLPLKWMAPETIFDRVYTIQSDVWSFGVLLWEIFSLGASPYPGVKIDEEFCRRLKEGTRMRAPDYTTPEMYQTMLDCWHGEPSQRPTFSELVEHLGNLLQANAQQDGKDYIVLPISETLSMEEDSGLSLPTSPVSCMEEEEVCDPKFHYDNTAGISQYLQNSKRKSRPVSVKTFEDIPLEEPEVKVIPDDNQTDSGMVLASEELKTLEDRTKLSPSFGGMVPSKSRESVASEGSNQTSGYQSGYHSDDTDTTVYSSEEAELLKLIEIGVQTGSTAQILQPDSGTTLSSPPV

Structure (SMILES) | IC50 (10% FBS) [nM] | IC50 [nM]
Cn1cc(-c2cc(-c3ccc(N4CCN([C@@H]5COC[C@H]5O)CC4)nc3)c3c(C#N)cnn3c2)cn1 [Example 159, 4-(6-(4-((3r,4s)-4-hydroxytetrahydrofuran-3-yl)piperazin-1-yl)pyridin-3-yl)-6-(1-methyl-1H-pyrazol-4-yl)pyrazolo[1,5-a]pyridine-3-carbonitrile] | 1300 | 
CO[C@H]1CCN(C(=O)N2CCN(c3cnc(-c4cc(-c5cnn(C)c5)cn5ncc(C#N)c45)cn3)CC2)C1 [Example 289, (S)-4-(5-(4-(3-methoxypyrrolidine-1-carbonyl)piperazin-1-yl)pyrazin-2-yl)-6-(1-methyl-1H-pyrazol-4-yl)pyrazolo[1,5-a]pyridine-3-carbonitrile] | 229 | 
Cc1cc(C(=O)N2CCN(c3ccc(-c4cc(-c5cnn(C)c5)cn5ncc(C#N)c45)cn3)CC2)no1 [Example 37, 6-(1-methyl-1H-pyrazol-4-yl)-4-(6-(4-(5-methylisoxazole-3-carbonyl)piperazin-1-yl)pyridin-3-yl)pyrazolo[1,5-a]pyridine-3-carbonitrile 2,2,2-trifluoroacetate] | 91.2 | 
CO[C@@H]1CCN(C(=O)N2CCN(c3ccc(-c4cc(-c5cnn(C)c5)cn5ncc(C#N)c45)cn3)CC2)C1 [Example 104, (R)-4-(6-(4-(3-methoxypyrrolidine-1-carbonyl)piperazin-1-yl)pyridin-3-yl)-6-(1-methyl-a]pyridine-3-carbonitrile 1H-pyrazol-4-yl)pyrazolo[1,5-] | 637 | 
CN1CCN(C(=O)N2CCN(c3ccc(-c4cc(-c5cnn(C)c5)cn5ncc(C#N)c45)cn3)CC2)CC1 [Example 120, 6-(1-methyl-1H-pyrazol-4-yl)-4-(6-(4-(4-methylpiperazine-1-carbonyl)piperazin-1-yl)pyridin-3-yl)pyrazolo[1,5-a]pyridine-3-carbonitrile] | 2240 | 
CO[C@H]1C[C@H]2CC[C@@H](C1)N2c1ccc(-c2cc(-c3cnn(C)c3)cn3ncc(C#N)c23)cn1 [Example 200, 4-(6-((1R,3r,5S)-3-methoxy-8-azabicyclo[3.2.1]octan-8-yl)pyridin-3-yl)-6-(1-methyl-1H-pyrazol-4-yl)pyrazolo[1,5-a]pyridine-3-carbonitrile] | 463 | 
Cn1cc(-c2cc(-c3ccc(N4CCN(C(=O)NC5CC5)CC4)nc3)c3c(C#N)cnn3c2)cn1 [Example 131, 4-(5-(3-cyano-6-(1-methyl-1H-pyrazol-4-yl)pyrazolo[1,5-a]pyridin-4-yl)pyridin-2-yl)-N-cyclopropylpiperazine-1-carboxamide 2,2,2-trifluoroacetate] | 447 | 
Cn1cc(-c2cc(-c3ccc(N4CCN(C(=O)N5CCC(C)(C)C5)CC4)nc3)c3c(C#N)cnn3c2)cn1 [Example 118, 4-(6-(4-(3,3-dimethylpyrrolidine-1-carbonyl)piperazin-1-yl)pyridin-3-yl)-6-(1-methyl-1H-pyrazol-4-yl)pyrazolo[1,5-a]pyridine-3-carbonitrile] | 606 | 
Cn1cc(-c2cc(-c3ccc(N4CCN(Cc5ccc(F)cc5)CC4)nc3)c3c(C#N)cnn3c2)cn1 [Example 424, 4-(6-(4-(4-fluorobenzyl)piperazin-1-yl)pyridin-3-yl)-6-(1-methyl-1H-pyrazol-4-yl)pyrazolo[1,5-a]pyridine-3-carbonitrile] |  | 630
Cn1cnc(CN2CCN(c3ccc(-c4cc(-c5cnn(C)c5)cn5ncc(C#N)c45)cn3)CC2)c1 [Example 449, 4-(6-(4-((1-methyl-1H-imidazol-4-yl)methyl)piperazin-1-yl)pyridin-3-yl)-6-(1-methyl-1H-pyrazol-4-yl)pyrazolo[1,5-a]pyridine-3-carbonitrile] |  | 1340
Cn1cc(-c2cc(-c3ccc(N4CCN(Cc5ccccc5F)CC4)nc3)c3c(C#N)cnn3c2)cn1 [Example 427, 4-(6-(4-(2-fluorobenzyl)piperazin-1-yl)pyridin-3-yl)-6-(1-methyl-1H-pyrazol-4-yl)pyrazolo[1,5-a]pyridine-3-carbonitrile] |  | 937
Cn1cc(-c2cc(-c3ccc(N4CCN(C(=O)N5CCC(C6CC6)C5)CC4)nc3)c3c(C#N)cnn3c2)cn1 (centres unmarked) [Example 388, 4-(6-(4-(3-cyclopropylpyrrolidine-1-carbonyl)piperazin-1-yl)pyridin-3-yl)-6-(1-methyl-1H-pyrazol-4-yl)pyrazolo[1,5-a]pyridine-3-carbonitrile] |  | 346
Cn1cc(-c2cc(-c3ccc(N4CCC5(CCN(C(=O)OC(C)(C)C)C5)C4)nc3)c3c(C#N)cnn3c2)cn1 (centres unmarked) [Example 519, tert-butyl 7-(5-(3-cyano-6-(1-methyl-1H-pyrazol-4-yl)pyrazolo[1,5-a]pyridin-4-yl)pyridin-2-yl)-2,7-diazaspiro[4.4]nonane-2-carboxylate] |  | 1250
Cn1cc(-c2cc(-c3ccc(N4CCN(Cc5nccn5C)CC4)nc3)c3c(C#N)cnn3c2)cn1 [Example 437, 4-(6-(4-((1-methyl-1H-imidazol-2-yl)methyl)piperazin-1-yl)pyridin-3-yl)-6-(1-methyl-1H-pyrazol-4-yl)pyrazolo[1,5-a]pyridine-3-carbonitrile] |  | 1970
CCN(CC)C(C(=O)N1CCN(c2ccc(-c3cc(-c4cnn(C)c4)cn4ncc(C#N)c34)cn2)CC1)c1ccccc1 (centres unmarked) [Example 364, 4-(6-(4-(2-(diethylamino)-2-phenylacetyl)piperazin-1-yl)pyridin-3-yl)-6-(1-methyl-1H-pyrazol-4-yl)pyrazolo[1,5-a]pyridine-3-carbonitrile bis(2,2,2-trifluoroacetate)] | 4360 | 
Cn1cc(-c2cc(-c3ccc(N4CCN(C(=O)C5(c6ccc(F)cc6)CC5)CC4)nc3)c3c(C#N)cnn3c2)cn1 [Example 345, 4-(6-(4-(1-(4-fluorophenyl)cyclopropanecarbonyl)piperazin-1-yl)pyridin-3-yl)-6-(1-methyl-1H-pyrazol-4-yl)pyrazolo[1,5-a]pyridine-3-carbonitrile] | 305 | 
Cn1cc(-c2cc(-c3ccc(N4CCC5(CCNCC5)CC4)nc3)c3c(C#N)cnn3c2)cn1 [Example 539, 4-(6-(3,9-diazaspiro[5.5]undecan-3-yl)pyridin-3-yl)-6-(1-methyl-1H-pyrazol-4-yl)pyrazolo[1,5-a]pyridine-3-carbonitrile dihydrochloride] |  | 1640
Cn1cc(-c2cc(-c3ccc(N4CCC5(CC4)CN(C(=O)OC4CCCC4)C5)nc3)c3c(C#N)cnn3c2)cn1 [Example 499, Cyclopentyl 7-(5-(3-cyano-6-(1-methyl-1H-pyrazol-4-yl)pyrazolo[1,5-a]pyridin-4-yl)pyridine-2-yl)-2,7-diazaspiro[3.5]nonane-2-carboxylate] |  | 462
Cn1cc(-c2cc(-c3ccc(N4CCN(C(=O)[C@H](N)c5ccccc5)CC4)nc3)c3c(C#N)cnn3c2)cn1 [Example 48, (R)-4-(6-(4-(2-amino-2-phenylacetyl)piperazin-1-yl)pyridin-3-yl)-6-(1-methyl-1H-pyrazol-4-yl)pyrazolo[1,5-a]pyridine-3-carbonitrile bis(2,2,2-trifluoroacetate)] | 612 | 
Cn1cc(-c2cc(-c3ccc(N4CCCC5(CCN(C(=O)OC(C)(C)C)C5)C4)nc3)c3c(C#N)cnn3c2)cn1 (centres unmarked) [Example 208, tert-butyl 7-(5-(3-cyano-6-(1-methyl-1H-pyrazol-4-yl)pyrazolo[1,5-a]pyridin-4-yl)pyridin-2-yl)-2,7-diazaspiro[4.5]decane-2-carboxylate] | 4680 | 
Cn1cc(-c2cc(-c3ccc(N4CCC5(CC4)CN(C(=O)C4CCCCC4)C5)nc3)c3c(C#N)cnn3c2)cn1 [Example 495, 4-(6-(2-(cyclohexanecarbonyl)-2,7-diazaspiro[3.5]nonan-7-yl)pyridin-3-yl)-6-(1-methyl-1H-pyrazol-4-yl)pyrazolo[1,5-a]pyridine-3-carbonitrile] |  | 771
CC(C)O[C@@H]1CCN(C(=O)N2CCN(c3ccc(-c4cc(-c5cnn(C)c5)cn5ncc(C#N)c45)cn3)CC2)C1 [Example 107, (R)-4-(6-(4-(3-isopropoxypyrrolidine-1-carbonyl)piperazin-1-yl)pyridin-3-yl)-6-(1-methyl-1H-pyrazol-4-yl)pyrazolo[1,5-a]pyridine-3-carbonitrile] | 893 | 
Cn1ccc(-c2cc(-c3ccc(N4CCN(Cc5ccccn5)CC4)nc3)c3c(C#N)cnn3c2)n1 [Example 588, 6-(1-methyl-1H-pyrazol-3-yl)-4-(6-(4-(pyridine-2-ylmethyl)piperazin-1-yl)pyridin-3-yl)pyrazolo[1,5-a]pyridine-3-carbonitrile] |  | ≥ 5000
Cn1cc(-c2cc(-c3ccc(N4CCN(Cc5cc(F)cc(F)c5)CC4)nc3)c3c(C#N)cnn3c2)cn1 [Example 447, 4-(6-(4-(3,5-difluorobenzyl)piperazin-1-yl)pyridin-3-yl)-6-(1-methyl-1H-pyrazol-4-yl)pyrazolo[1,5-a]pyridine-3-carbonitrile] |  | 668
CN(C)CC(=O)N1CC2(CCN(c3ccc(-c4cc(-c5cnn(C)c5)cn5ncc(C#N)c45)cn3)CC2)C1 [Example 494, 4-(6-(2-(2-(dimethylamino)acetyl)-2,7-diazaspiro[3.5]nonan-7-yl)pyridin-3-yl)-6-(1-methyl-1H-pyrazol-4-yl)pyrazolo[1,5-a]pyridine-3-carbonitrile] |  | 1830
Cn1cc(-c2cc(-c3ccc(N4CCN(CC(F)(F)F)CC4)nc3)c3c(C#N)cnn3c2)cn1 [Example 419, 6-(1-methyl-1H-pyrazol-4-yl)-4-(6-(4-(2,2,2-trifluoroethyl)piperazin-1-yl)pyridin-3-yl)pyrazolo[1,5-a]pyridine-3-carbonitrile] |  | 1900
